Experimental data: patent US7649000B2, “Selective dipeptide inhibitors of kallikrein” (Vantia Limited, priority 2002, dated 2010)
pKi: −log10 of the molar value. Where a name gives a salt, the structure may show the parent alone.

Tests used:
Format in all cases: biochemical
Human plasma kallikrein = biological target: T1, Human plasma kallikrein (Homo sapiens, UniProt P03952); assay: Determination of the inhibition constant Ki for plasma kallikrein (chromogenic substrate S-2302, Dixon plot); conditions: substrate S-2302, 37° C.
T1 construct: purchased Callbiochem (Calbiochem)
Description: Determination of the Inhibition Constant Ki for Plasma Kallikrein
(§1) Inhibition of plasma kallikrein activity in vitro was determined using standard published methods (see e.g. Johansen et al., Int. J. Tiss. Reac. 1986, 8, 185; Shori et al., Biochem. Pharmacol., 1992, 43, 1209; Stüjrzebecher et al., Biol. Chem. Hoppe-Seyler, 1992, 373, 1025). Human plasma kallikrein (Callbiochem) was incubated at 37° C. with three different concentrations of the chromogenic substrate S-2302 (Chromogenix AB) and various concentrations of the test compound. Residual enzyme activity (initial rate of reaction) was determined by measuring the change in optical absorbance at 405 nm and the inhibitory constant Ki for the test compound as determined from a Dixon plot (Dixon, Biochem. J., 1953, 55, 170).

Human Tissue Kallikrein = Human Tissue Kallikrein (Homo sapiens, UniProt P06870); assay: Enzyme selectivity: inhibition of human tissue kallikrein (substrate S-2266); conditions: for Selectivity: (Ki for Human Tissue Kallikrein)/(Ki for plasma kallikrein); for pKi: Human Tissue Kallikrein, substrate S-2266
Description: as §1, with “Reac. 1986, 8, 185;” left out, “Pharmacol., 1992, 43, 1209;” left out, “[…] Determination of Enzyme Selectivity Selected compounds were further screened for inhibitory activity against other trypsin-like proteases following the method of Example 59 and using the appropriate enzyme and chromogenic substrate (Chromogenix AB). The selectivity is given by: Selectivity=(Ki for test enzyme)/(Ki for plasma kallikrein)” for “J., 1953, 55, 170).”

Trypsin = biological target: T2, Trypsin (Bos taurus, UniProt P00760); assay: Enzyme selectivity: inhibition of trypsin (substrate S-2222)
T2 sequence (P00760 24-246): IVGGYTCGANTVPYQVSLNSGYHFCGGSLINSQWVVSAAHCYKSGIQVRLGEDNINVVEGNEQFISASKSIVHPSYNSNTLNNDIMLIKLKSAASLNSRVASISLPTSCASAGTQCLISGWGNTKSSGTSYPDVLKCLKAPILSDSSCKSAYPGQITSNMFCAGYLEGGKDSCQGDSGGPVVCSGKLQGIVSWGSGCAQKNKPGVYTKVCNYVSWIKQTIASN
Description: as §1, with “Reac. 1986, 8, 185;” left out, “Pharmacol., 1992, 43, 1209;” left out, “[…] Determination of Enzyme Selectivity Selected compounds were further screened for inhibitory activity against other trypsin-like proteases following the method of Example 59 and using the appropriate enzyme and chromogenic substrate (Chromogenix AB). The selectivity is given by: Selectivity=(Ki for test enzyme)/(Ki for plasma kallikrein)” for “J., 1953, 55, 170).”

Plasmin = Plasmin (Homo sapiens, UniProt P00747); assay: Enzyme selectivity: inhibition of plasmin (substrate S-2390)
Description: as §1, with “Reac. 1986, 8, 185;” left out, “Pharmacol., 1992, 43, 1209;” left out, “[…] Determination of Enzyme Selectivity Selected compounds were further screened for inhibitory activity against other trypsin-like proteases following the method of Example 59 and using the appropriate enzyme and chromogenic substrate (Chromogenix AB). The selectivity is given by: Selectivity=(Ki for test enzyme)/(Ki for plasma kallikrein)” for “J., 1953, 55, 170).”

Thrombin = Thrombin (Homo sapiens, UniProt P00734); assay: Enzyme selectivity: inhibition of thrombin (substrate S-2238)
Description: as §1
Determination of Enzyme Selectivity
Selected compounds were further screened for inhibitory activity against other trypsin-like proteases following the method of Example 59 and using the appropriate enzyme and chromogenic substrate (Chromogenix AB). The selectivity is given by: Selectivity=(Ki for test enzyme)/(Ki for plasma kallikrein)

T1 sequence (P03952 391-638 limits assumed): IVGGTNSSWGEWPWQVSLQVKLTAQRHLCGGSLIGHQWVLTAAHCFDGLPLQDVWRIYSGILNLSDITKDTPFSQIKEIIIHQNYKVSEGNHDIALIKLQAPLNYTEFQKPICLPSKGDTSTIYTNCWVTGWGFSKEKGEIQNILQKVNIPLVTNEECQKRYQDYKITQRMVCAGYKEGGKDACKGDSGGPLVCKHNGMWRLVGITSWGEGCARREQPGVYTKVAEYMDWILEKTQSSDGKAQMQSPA
T1 sequence (P03952 20-390 partner limits assumed): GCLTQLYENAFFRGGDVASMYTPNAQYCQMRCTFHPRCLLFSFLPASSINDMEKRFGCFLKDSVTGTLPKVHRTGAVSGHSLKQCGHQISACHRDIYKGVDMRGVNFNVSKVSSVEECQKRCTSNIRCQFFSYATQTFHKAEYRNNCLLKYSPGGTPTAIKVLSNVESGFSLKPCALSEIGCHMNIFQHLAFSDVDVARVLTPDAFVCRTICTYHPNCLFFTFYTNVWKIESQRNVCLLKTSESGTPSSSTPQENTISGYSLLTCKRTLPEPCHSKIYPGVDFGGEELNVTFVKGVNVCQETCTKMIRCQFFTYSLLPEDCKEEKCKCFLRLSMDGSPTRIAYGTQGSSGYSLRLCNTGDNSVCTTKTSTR
Sequence of Human Tissue Kallikrein (P06870 25-262): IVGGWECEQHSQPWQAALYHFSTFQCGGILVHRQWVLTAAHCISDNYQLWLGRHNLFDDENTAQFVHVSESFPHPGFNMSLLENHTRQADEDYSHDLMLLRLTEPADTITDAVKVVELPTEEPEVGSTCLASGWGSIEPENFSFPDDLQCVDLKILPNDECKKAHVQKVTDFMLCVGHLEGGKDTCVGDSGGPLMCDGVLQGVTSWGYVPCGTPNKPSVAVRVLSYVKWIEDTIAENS
Sequence of Plasmin (P00747 97-810): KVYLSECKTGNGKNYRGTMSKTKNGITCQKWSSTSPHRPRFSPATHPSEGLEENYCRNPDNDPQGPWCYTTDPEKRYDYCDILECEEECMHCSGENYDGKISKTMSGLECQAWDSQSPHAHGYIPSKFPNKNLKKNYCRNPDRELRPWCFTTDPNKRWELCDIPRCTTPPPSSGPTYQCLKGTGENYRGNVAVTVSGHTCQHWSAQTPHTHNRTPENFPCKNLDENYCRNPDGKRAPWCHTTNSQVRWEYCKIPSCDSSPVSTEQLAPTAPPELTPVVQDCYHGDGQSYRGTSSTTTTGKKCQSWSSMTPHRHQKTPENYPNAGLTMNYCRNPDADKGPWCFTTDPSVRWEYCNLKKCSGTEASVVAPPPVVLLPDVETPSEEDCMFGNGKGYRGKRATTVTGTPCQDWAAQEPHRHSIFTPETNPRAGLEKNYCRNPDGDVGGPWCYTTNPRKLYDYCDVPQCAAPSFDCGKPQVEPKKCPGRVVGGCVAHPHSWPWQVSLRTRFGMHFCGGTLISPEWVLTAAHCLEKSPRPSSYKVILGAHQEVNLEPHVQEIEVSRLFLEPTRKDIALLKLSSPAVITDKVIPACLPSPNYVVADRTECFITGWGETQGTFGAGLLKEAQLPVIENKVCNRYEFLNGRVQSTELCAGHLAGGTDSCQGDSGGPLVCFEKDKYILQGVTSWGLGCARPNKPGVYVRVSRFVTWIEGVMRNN

Compound | pKi (Human plasma kallikrein) | Selectivity (Human Tissue Kallikrein) | pKi (Human Tissue Kallikrein) | also measured
CCOc1ccc(C[C@@H](N)C(=O)N[C@@H](Cc2ccccc2)C(=O)NC2CCN(C(=N)N)CC2)cc1.O=C(O)C(F)(F)F [Example 1, (2′S,2″R)-4-(2′-(2″-Amino-3″-(4′″-ethoxyphenyl)propanoylamino)-3′-phenylpropanoyl-amino)piperidine-1-carboxamidine trifluoroacetate] | 8.35 | 10,000 | 4.35 | –
COC(=O)CN[C@H](CC1CCCCC1)C(=O)N[C@@H](Cc1ccccc1)C(=O)NC1CCN(C(=N)N)CC1 [Example 2, (2′S,2″R)-4-(2′-(3″-Cyclohexyl-2″-(methyloxycarbonylmethylamino)propanoylamino)-3′-phenylpropanoylamino)piperidine-1-carboxamidine trifluoroacetate] | 7.18 | – | – | –
N=C(N)N1CCC(NC(=O)[C@H](Cc2ccccc2)NC(=O)[C@@H](CC2CCCCC2)NCC(=O)O)CC1.O=C(O)C(F)(F)F [Example 3, (2′S,2″R)-4-(2′-(2″-(Carboxymethylamino)-3″-cyclohexylpropanoylamino)-3′-phenyl-propanoylamino)piperidine-1-carboxamidine trifluoroacetate] | 8.52 | 2,000 | 5.22 | Selectivity (Trypsin; (Ki for Trypsin)/(Ki for plasma kallikrein)): 270; pKi (Trypsin; Trypsin, substrate S-2222): 6.08; Selectivity (Plasmin; (Ki for Plasmin)/(Ki for plasma kallikrein)): 1,000; pKi (Plasmin; Plasmin, substrate S-2390): 5.49; Selectivity (Thrombin; (Ki for Thrombin)/(Ki for plasma kallikrein)): 100; pKi (Thrombin; Thrombin, substrate S-2238): 6.51
CCOc1ccc(C[C@@H](NC(=O)c2ccccc2)C(=O)N[C@@H](Cc2ccccc2)C(=O)NC2CCN(C(=N)N)CC2)cc1.O=C(O)C(F)(F)F [Example 4, (2′S,2″R)-4-(2′-(2″-Benzoylamino-3″-(4′″-ethoxyphenyl)propanoylamino)-3′-phenyl-propanoylamino)piperidine-1-carboxamidine trifluoroacetate] | 8.85 | 13,000 | 4.73 | –
CCOc1ccc(C[C@@H](N)C(=O)N[C@H](C(=O)NC2CCN(C(=N)N)CC2)[C@H](O)c2ccccc2)cc1.O=C(O)C(F)(F)F [Example 5, (2′S,2″R, 3′R)-4-(2′-(2″-Amino-3″-(4′″-ethoxyphenyl)propanoylamino)-3′-hydroxy-3′-phenyl-propanoylamino)piperidine-1-carboxamidine trifluoroacetate] | 8.18 | >10,000 | < 4.15 | –
CCOc1ccc(C[C@@H](N)C(=O)N[C@H](C(=O)NC2CCN(C(=N)N)CC2)[C@H](OC)c2ccccc2)cc1 [Example 6, (2′S,2″R,3′R)-4-(2′-(2″-Amino-3″-(4′″-ethoxyphenyl)propanoylamino)-3′-methoxy-3′-phenyl-propanoylamino)piperidine-1-carboxamidine trifluoroacetate] | 7.60 | – | – | –
N=C(N)N1CCC(NC(=O)[C@H](Cc2ccccc2)NC(=O)[C@@H](CC2CCC3CCCCC3C2)NCC(=O)O)CC1 (some centres unmarked) [Example 14] | 8.59 | – | – | –
COC(=O)CN[C@H](CC1CCC2CCCCC2C1)C(=O)N[C@@H](Cc1ccccc1)C(=O)NC1CCN(C(=N)N)CC1 (some centres unmarked) [Example 15] | 7.72 | – | – | –
N=C(N)N1CCC(NC(=O)[C@H](Cc2ccccc2)NC(=O)[C@H](N)Cc2ccc(OCc3ccccc3)cc2)CC1 [Example 32] | 8.26 | – | – | –
CCCOc1ccc(C[C@@H](N)C(=O)N[C@@H](Cc2ccccc2)C(=O)NC2CCN(C(=N)N)CC2)cc1 [Example 34] | 8.15 | – | – | –
CCOc1ccc(C[C@@H](NC)C(=O)N[C@@H](Cc2ccccc2)C(=O)NC2CCN(C(=N)N)CC2)cc1 [Example 39] | 7.82 | 930 | 4.85 | –
CCOc1ccc(C[C@@H](NS(C)(=O)=O)C(=O)N[C@@H](Cc2ccccc2)C(=O)NC2CCN(C(=N)N)CC2)cc1 [Example 40] | 8.05 | 210 | 5.71 | –
CCOc1ccc(C[C@@H](NS(=O)(=O)c2ccccc2)C(=O)N[C@@H](Cc2ccccc2)C(=O)NC2CCN(C(=N)N)CC2)cc1 [Example 42] | 8.35 | 1,500 | 5.17 | –
CCOc1ccc(C[C@@H](NC(C)=O)C(=O)N[C@@H](Cc2ccccc2)C(=O)NC2CCN(C(=N)N)CC2)cc1 [Example 43] | 8.14 | 9,400 | 4.16 | –
CCCC(=O)N[C@H](Cc1ccc(OCC)cc1)C(=O)N[C@@H](Cc1ccccc1)C(=O)NC1CCN(C(=N)N)CC1 [Example 44] | 8.39 | – | – | –
CCOc1ccc(C[C@@H](NC(=O)CC)C(=O)N[C@@H](Cc2ccccc2)C(=O)NC2CCN(C(=N)N)CC2)cc1 [Example 45] | 8.52 | 16,000 | 4.31 | –
CCOc1ccc2c(c1)CN[C@@H](C(=O)N[C@@H](Cc1ccccc1)C(=O)NC1CCN(C(=N)N)CC1)C2 [Example 52] | 7.74 | – | – | –
